Reference: patent US8247439B2, “Jasmonate derivatives, pharmaceutical compositions and methods of use thereof” (Sepal Pharma Ltd., priority 2005, dated 2012)

Assays:
[1] = test system: Molt-4 lymphoblastic leukemia cells; experiment: Cytotoxicity of jasmonate derivatives in Molt-4 cells (Example 1, XTT/MTS assay); type: cell-based, Human; settings: for Cytotoxic potency at 0.1 mM, first screening: Molt-4, 0.1 mM; for Cytotoxic potency, second screen: Molt-4, 0.01-0.1 mM, FIG. 2; for Cytotoxic potency compared to methyl jasmonate, first screening: Molt-4, 0.1-1 mM, FIGS. 1A and 1B; for Cytotoxic potency compared to methyl jasmonate, third screen: Molt-4, FIG. 3 and Table 1; for inhibition at 1 µM / inhibition at 10 µM / inhibition at 100 µM: Homo sapiens, MOLT-4, 24 hours, value (±spread), read-out: Cytotoxicity in Molt-4 cells (% of inhibition compared to control); for inhibition at 1 µM: 0.001 mM; for inhibition at 10 µM: 0.01 mM; for inhibition at 100 µM: 0.1 mM
Experimental: (§1) Measurement of reduction in the number of living cells was determined by the CellTiter 96 Aqueous Non-Radioactive Cell Proliferation Assay (XTT Cell Proliferation Kit assay (Biological industries, Beit-Haemek, Israel)). Upon completion of a given experiment, MTS (a tetrazolium compound) at 333 μg/ml+phenazine methosulfate (at 25 μM) was added to each well of the 96-well plate for 1 hour at 37° C. This allowed for development of a color reaction in which dehydrogenases reduce the MTS in metabolically active cells. Soluble MTS formazan product was measured at a wavelength of 490 nm using a CERES 900 HDI ELISA reader (Bio-Tek Instruments, Inc, Highland Park, Vt.).
(§2) Percentage of Optical density is directly proportional to the number of living cells in culture. Cytotoxicity (%) was calculated in the following way: [(OD of control cells —OD of drug-treated cells)/OD of control cells]×100.
The cytotoxicity of jasmonate derivatives A1-A6, B1 and B2 was compared to that of the previously studied jasmonate, methyl jasmonate (MJ). The cytotoxicity of each compound was determined in Molt-4-Human acute lymphoblastic leukemia cell-line.
[…] Each experimental point was performed in triplicates. Untreated cells were used as control. The test compounds were prepared as a stock of 100 mM in DMSO. Dilutions were performed in culture medium and DMSO so that the maximal concentration of DMSO in each well was 0.5%. […] Cytotoxicity and optical density were determined as described above.

[2] = test system: Molt-4 (leukemia) cells; experiment: Cytotoxicity in Molt-4 cells (Example 2, selectivity); type: cell-based; settings: Homo sapiens, 24 h; Molt-4, one day incubation
Experimental: as §1, §2
(§3) Molt-4 (leukemia) cells (at 2.5×10^4/ml), and normal peripheral blood lymphocytes (PBL, at 2×10^5/ml) were incubated in 96-well plates for one day in the presence of different concentrations of methyl jasmonate, (MJ—disclosed in U.S. Pat. No. 6,469,061), and compounds A3 and A4 of the present invention at concentrations: of 0.001, 0.01, 0.1 and 0.5 mM. In some experiments, PBL were pre-incubated with 0.8 μg/ml phytohemagglutinin (PHA)+5 ng/ml TPA for […], to induce entrance into the cell cycle. These cells proliferate and therefore are similar in that respect to cancer cells, making the comparison more valid. The optical density that represented viable cells was determined as described above.

[3] = test system: normal peripheral blood lymphocytes (PBL), -PHA/TPA; experiment: Cytotoxicity in normal PBL without PHA/TPA (Example 2); type: cell-based, Human; settings: for IC20 / IC50: Homo sapiens, Lymphocyte, 24 h, PBL -PHA/TPA, one day incubation; for Selective cytotoxic effect: leukemic cells vs normal lymphocytes: Molt-4 vs PBL, FIGS. 4A and 4B
Experimental: as §1, §2, §3

[4] = test system: normal peripheral blood lymphocytes (PBL), +PHA/TPA; experiment: Cytotoxicity in normal PBL pre-incubated with PHA/TPA (Example 2); type: cell-based; settings: Homo sapiens, Lymphocyte, 24 h, one day incubation
Experimental: as §1, §2, §3

[5] = test system: Molt-4; experiment: Cytotoxicity of B3 in Molt-4 (Example 4); type: cell-based; settings: Homo sapiens; Molt-4, 24 hours, n=12
Experimental: as §1, §2
(§4) Mononuclear cells were isolated from peripheral blood of healthy donors and treated as described above. The non-adherent PBL were pre-incubated without PHA and TPA. Molt-4 and PBL cells were seeded in 96-well plates as described above.
(§5) Compound B3 was added at concentration ranging from 0.0025-1 mM for 24 hours. The number of repeats for each experiment is indicated by n. Untreated cells were used as control. […] Optical density and percentage of Cytotoxicity were determined as described above.

[6] = test system: CLL (PBL, chronic lymphocytic leukemia); experiment: Cytotoxicity of B3 in CLL cells (Example 4); type: cell-based; settings: Homo sapiens, CLL cell, 24 hours, n=14
Experimental: as §1, §2
Cytotoxicity of compound B3 was evaluated in 1) Molt 4 cells (an in-vitro model for transformed cells); 2) PBL (an ex vivo model for normal cells); and 3) PBL CLL—Peripheral blood lymphocytes collected from chronic lymphocytic leukemia patients (an ex vivo model for ex vivo transformed cells). […]
Compound B3 was added at concentration ranging from 0.0025-1 mM for 24 hours. […] Optical density and percentage of Cytotoxicity were determined as described above.

[7] = test system: NCI H460; experiment: Cytotoxicity of B3 in NCI H460 (Example 4); type: cell-based; settings: Homo sapiens; NCI H460, 24 hours, n=3
Experimental: as §1, §2
(§6) Compound B3 was added at concentration ranging from 0.0025-1 mM for 24 hours. The number of repeats for each experiment is indicated by n. Untreated cells were used as control. Compound B3 was prepared as a stock of 100 mM in 100% DMSO and dilutions in medium were prepared as described above. Optical density and percentage of Cytotoxicity were determined as described above.

[8] = test system: B16; experiment: Cytotoxicity of B3 in B16 (Example 4); type: cell-based; settings: Mus musculus; B16, 24 hours, n=6
Experimental: as §1, §2, §6

[9] = test system: HTB38; experiment: Cytotoxicity of B3 in HTB38 (Example 4); type: cell-based; settings: Homo sapiens, HTB-38; HTB38, 24 hours, n=3
Experimental: as §1, §2, §6

[10] = test system: LNCaP; experiment: Cytotoxicity of B3 in LNCaP (Example 4); type: cell-based; settings: Homo sapiens, 24 hours, n=4
Experimental: as §1, §2, §6

[11] = test system: PBL, healthy donors; experiment: Cytotoxicity of B3 in PBL of healthy donors (Example 4); type: cell-based, Human
Experimental: as §1, §2, §4, §5

[12] = test system: Fibroblasts; experiment: Cytotoxicity of B3 in fibroblasts (Example 4); type: cell-based; settings: Homo sapiens, Fibroblast, 24 hours, n=2
Experimental: as §1, §2, §6

[13] = test system: Molt-4 cell line; experiment: Cytotoxicity of different batches of B3 towards Molt-4 (Example 5); type: cell-based, Human
Experimental: as §1, §2
The IC50 values in Molt-4 cells for B3 were 0.06 mM in average. For cytotoxicity evaluation in different cell lines B3-IV was used.

[14] = test system: Molt 4 cell line; experiment: ATP depletion in Molt-4 (CellTiter-Glo luminescent assay, Example 7); type: cell-based; settings: Homo sapiens; Molt-4, 1 hr exposure
Experimental: The effect of methyl jasmonate and compound B3 on ATP level depletion is studied in the Molt 4 cell line using ATP kit and luminometer (Cell titer—Glo Luminescent, cell viability assay, Promega, code G7571, Ref.)
Cell preparation: Cells (Molt 4) were seeded in 96-well opaque-walled plates. The number of cells (in a volume of 100 μL/well) was: 5×10^4 cells/well. Control wells contained 100 μL medium without cells (background luminescence) Incubations were performed at 37° C., 6% CO2, using the following culture medium: RPMI 1640, 10% FCS, 2 mM L-Glutamine and penicillin 200 U/ml+200 μg/ml streptomycin or equivalent. For the cell viability assay, cells were incubated for 12 min-24 hr. in the absence or presence of methyl jasmonate or several jasmonate derivatives of the present invention at 0.05-4 mM. Reagent Preparation The CellTiter-Glo® buffer and the lyophilized substrate were thawed and equilibrated to room temperature. The buffer was mixed with the substrate by vortexing for 1 minute. […]
The plates were equilibrated to room temperature [25° C.] for 30 min. […] The plates were allowed to incubate at 25° C. for 10 min in the Luminoskan to stabilize luminescence signal. Results were read through Record luminescence [Thermo-Luminoskan Ascent] or equivalent, with integration time of 2000 m. seconds per well and blanking time 5%. […] Percent of cytotoxicity was determined described above.

[15] = test system: Molt-4 (leukemia) cells; settings: cited from earlier work
[16] = test system: normal peripheral blood lymphocytes (PBL), -PHA/TPA; settings: cited from earlier work
[17] = test system: lymphomas; settings: mice; cited from earlier work

CCCCCC1c2nc(NC(=O)c3cnccn3)sc2CC1CC(=O)NC1CC1 (centres unmarked) [Compound A1]
Cytotoxic potency at 0.1 mM, first screening [1]: very potent | Cytotoxic potency, second screen [1]: most potent | Cytotoxic potency compared to methyl jasmonate, first screening [1]: more potent than methyl jasmonate

CCCCCC1c2nc(N)sc2CC1CC(=O)N1CCN(C)CC1 (centres unmarked) [Compound A2]
Cytotoxic potency compared to methyl jasmonate, first screening [1]: more potent than methyl jasmonate

CCCCCC1c2nc(NC(=O)Cc3cccs3)sc2CC1CC(=O)O (centres unmarked) [Compound A3]
Cytotoxic potency at 0.1 mM, first screening [1]: very potent | Cytotoxic potency, second screen [1]: most potent | Cytotoxic potency compared to methyl jasmonate, first screening [1]: more potent than methyl jasmonate | Cytotoxic potency compared to methyl jasmonate, third screen [1]: significantly more potent than methyl jasmonate | IC20 [2]: 10 µM | IC50 [2]: 50 µM | IC20 [3]: 30 µM | IC50 [3]: 250 µM | Selective cytotoxic effect: leukemic cells vs normal lymphocytes [3]: without exerting a substantial effect on normal lymphocytes | IC20 [4]: 70 µM | IC50 [4]: 300 µM

CCCCCC1c2nc(-c3ccccc3)sc2CC1CC(=O)N1CCC(O)CC1 (centres unmarked) [Compound A4]
inhibition at 1 µM [1]: 4% | inhibition at 10 µM [1]: 10% | inhibition at 100 µM [1]: 96% | Cytotoxic potency at 0.1 mM, first screening [1]: very potent | Cytotoxic potency, second screen [1]: most potent | Cytotoxic potency compared to methyl jasmonate, first screening [1]: more potent than methyl jasmonate | Cytotoxic potency compared to methyl jasmonate, third screen [1]: significantly more potent than methyl jasmonate | IC20 [2]: < 10 µM | IC50 [2]: 45 µM | IC20 [3]: < 10 µM | Selective cytotoxic effect: leukemic cells vs normal lymphocytes [3]: without exerting a substantial effect on normal lymphocytes | IC20 [4]: 25 µM

CCCCCC1c2nc(NS(=O)(=O)c3cccc(F)c3)sc2CC1CC(=O)OC (centres unmarked) [Compound A5]
Cytotoxic potency at 0.1 mM, first screening [1]: very potent | Cytotoxic potency compared to methyl jasmonate, first screening [1]: more potent than methyl jasmonate

CCCCCC1c2nc(Nc3ccccc3)sc2CC1CC(=O)NCCOC (centres unmarked) [Compound A6]
Cytotoxic potency at 0.1 mM, first screening [1]: very potent | Cytotoxic potency, second screen [1]: most potent | Cytotoxic potency compared to methyl jasmonate, first screening [1]: more potent than methyl jasmonate

CC/C=C\CC1C(=O)CCC1CCOC(=O)CC1CCC(=O)C1C/C=C\CC (centres unmarked) [Compound B3]
IC50 [5]: 70 µM | IC50 [6]: 250 µM | IC50 [7]: > 1000 µM | IC50 [8]: 700 µM | IC50 [9]: > 1000 µM | IC50 [10]: > 1000 µM | IC50 ([11]; Homo sapiens, PBL healthy donors, without PHA/TPA, 24 hours, n=12): 1000 µM | Selective cytotoxicity towards cancer cells ([11]; Molt-4, CLL vs PBL, FIG. 5): exhibits selective cytotoxicity towards cancer cells | IC50 [12]: > 500 µM | IC50 ([13]; Homo sapiens, MOLT-4, Molt-4): 60 µM | IC50 ([13]; Molt-4, listed as B3 (IV)): 50 µM | IC50 ([13]; Molt-4, listed as B3 (V)): 80 µM | IC50 [14]: 500 µM

CC/C=C\CC1C(=O)CCC1CC(=O)OC (centres unmarked) [MJ, methyl jasmonate, reference compound]
inhibition at 1 µM [1]: 6% | inhibition at 10 µM [1]: 5% | inhibition at 100 µM [1]: 17% | IC20 [2]: 30 to 50 µM | IC50 [2]: 100 to 500 µM | IC20 [3]: > 500 µM | IC50 [3]: > 500 µM | IC20 [4]: > 500 µM | IC50 [4]: > 500 µM | IC50 ([13]; Homo sapiens, MOLT-4, Molt-4): 600 µM | IC50 [14]: 500 µM | Cytotoxicity to Molt-4 cells (previously reported data) [15]: cytotoxic to Molt-4 cells | Toxicity to normal lymphocytes (previously reported data) [16]: almost not toxic to normal lymphocytes | Prevention of development of lymphomas [17]: effective in preventing development of lymphomas in mice
